Assays:
[1] = biological target: T1, crude enzyme obtained from pink petals of a carnation (variety: "Beam Cherry") (glycosyltransferase) (Dianthus caryophyllus, UniProt E3W9M2); assay: Relative activity of crude carnation petal enzyme on each sugar donor (glycosyl transfer to cyanidin 3-glucoside, HPLC); assay type: biochemical; settings: crude enzyme 61 μg, cyanidin β-glucoside 200 μM, sugar donor 500 μM, citric acid buffer pH 5.6, 30° C., 15 minutes; HPLC area of cyanidin 3,5-O-β diglucoside
T1 construct: Thus, a crude enzyme liquid was obtained; from tissue; host or cells: pink petals of carnation, variety Beam Cherry (ammonium sulfate precipitate, desalted)
T1 sequence (E3W9M2 31-502): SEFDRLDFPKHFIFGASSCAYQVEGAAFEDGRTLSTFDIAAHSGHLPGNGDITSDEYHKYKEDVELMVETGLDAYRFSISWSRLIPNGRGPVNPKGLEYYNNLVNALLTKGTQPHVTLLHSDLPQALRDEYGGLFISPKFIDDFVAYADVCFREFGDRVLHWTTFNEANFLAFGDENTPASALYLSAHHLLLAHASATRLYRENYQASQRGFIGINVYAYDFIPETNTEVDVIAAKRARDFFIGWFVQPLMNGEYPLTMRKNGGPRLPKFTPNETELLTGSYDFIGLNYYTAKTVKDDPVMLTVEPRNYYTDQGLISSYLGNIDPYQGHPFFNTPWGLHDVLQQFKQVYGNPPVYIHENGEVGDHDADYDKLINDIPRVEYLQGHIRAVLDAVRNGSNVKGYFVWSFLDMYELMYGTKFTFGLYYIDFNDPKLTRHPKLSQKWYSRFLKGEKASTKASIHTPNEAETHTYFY
Procedure: An enzyme reaction was carried out at 30° C. for 15 minutes in a reaction solution obtained by adding a citric acid buffer (pH 5.6) to a crude enzyme obtained from pink petals of a carnation (variety: “Beam Cherry”) (61 μg), cyanidin β-glucoside (200 μM), and a sugar donor (1-O-β-vanillyl glucose extracted from a carnation or any of synthesized 1-O-vanillyl glucose (in the α or β form), 1-O-isovanillyl glucose (in the α or β form), and 1-O-galloyl glucose (in the α or β form)) (500 μM) to a final volume of 30 μl. The reaction was terminated by adding a 20% phosphoric acid aqueous solution to the reaction liquid so as to result in a final phosphoric acid concentration of 1%, followed by centrifugation. The obtained supernatant was subjected to separation using an HPLC (Chromolith Speed ROD; 4.6×50 mm; Merck) with a linear gradient (5 minutes) of 18% to 28% liquid B containing eluent A (a 1.5% phosphoric acid aqueous solution) and eluent B (a 90% methanol aqueous solution) (flow rate: 3.0 ml/min; 520 nm), followed by analysis. The relative activity of the enzyme on each sugar donor was calculated based on the HPLC chromatogram area of a reaction product (cyanidin 3,5-O-β diglucoside) at a wavelength of 505 nm.

[2] = biological target: T2, enzyme purified from pink petals of a carnation (variety: "Beam Cherry") (glycosyltransferase) (Dianthus caryophyllus, UniProt E3W9M2); assay: Relative activity of glycosyltransferase purified from carnation on each sugar donor (HPLC); assay type: biochemical; settings: purified enzyme 135 ng, cyanidin 3-glucoside 200 μM, sugar donor 500 μM, citric acid buffer pH 5.6, 30° C., 15 minutes; HPLC area of cyanidin 3,5-O-β-diglucoside
T2 construct: the enzyme comprising 502 amino acid residues was translated, followed by amino acid removal via processing; from tissue; host or cells: petals of carnation, variety Beam Cherry
T2 sequence (E3W9M2 31-502): T1 sequence (E3W9M2 31-502)
Procedure: An enzyme reaction was carried out at 30° C. for 15 minutes using an enzyme (135 ng) purified from pink petals of a carnation (variety: “Beam Cherry”) by the method described in Example 2 ((1) and (2)), cyanidin 3-glucoside (200 μM), and a sugar donor (1-O-β-D-vanillyl glucose or any of 1-O-β-D-p-coumaryl glucose, 1-O-β-D-caffeyl glucose, 1-O-β-D-feruloyl glucose, and 1-O-β-D-sinapoyl glucose that had been enzymatically synthesized according to the method described in Matsuba Y et al., Plant Biotechnology vol. 25, No. 4 (2008) pp. 369-375) (500 μM) in a reaction solution adjusted to 30 μl with the addition of a citric acid buffer (pH 5.6). A 20% phosphoric acid aqueous solution was added to the reaction liquid so as to result in a final phosphoric acid concentration of 1%. Thus, the reaction was terminated, followed by centrifugation. The resulting supernatant was subjected to separation using a HPLC column (Chromolith SpeedROD, 4.6×50 mm, Merck), eluent A (a 1.5% phosphoric acid aqueous solution), and eluent B (a 90% methanol aqueous solution) with a linear gradient of 18% to 28% liquid B (flow rate: 3.0 ml/min, 520 nm) (5 minutes), followed by analysis. The relative activity of the enzyme on each sugar donor was determined by calculating the area of the reaction product (cyanidin 3,5-O-β-diglucoside) on an HPLC chromatogram at a wavelength of 505 nm.

| Compound | Relative activity of an enzyme on a sugar donor (when synthetic 1-O-β-vanillyl glucose is set as 100) [1] | Relative activity of an enzyme on a sugar donor (when synthetic 1-O-β-vanillyl glucose is set as 100) [2] |
| --- | --- | --- |
| 1-O-α-vanillyl glucose [1-O-α-vanillyl glucose (synthetic)] | 1.7 |  |
| COc1ccc(C(=O)O[C@H]2O[C@H](CO)[C@@H](O)[C@H](O)[C@H]2O)cc1O [1-O-α-isovanillyl glucose (synthetic), 1-O-α-isovanillyl glucose] | Not detectable |  |
| O=C(/C=C/c1ccc(O)c(O)c1)OC1OC(CO)C(O)C(O)C1O [1-O-β-D-caffeyl glucose (synthetic), 1-O-β-caffeyl glucose] |  | 464 |
| COc1cc(/C=C/C(=O)OC2OC(CO)C(O)C(O)C2O)ccc1O [1-O-β-D-feruloyl glucose (synthetic), 1-O-β-feruloyl glucose] |  | 1320 |
| O=C(/C=C/c1ccc(O)cc1)OC1OC(CO)C(O)C(O)C1O [1-O-β-D-p-coumaryl glucose (synthetic), 1-O-β-p-coumaryl glucose] |  | 350 |
| COc1cc(/C=C/C(=O)OC2OC(CO)C(O)C(O)C2O)cc(OC)c1O [1-O-β-D-sinapoyl glucose (synthetic), 1-O-β-sinapoyl glucose] |  | 793 |
| O=C(O[C@@H]1O[C@H](CO)[C@@H](O)[C@H](O)[C@H]1O)c1cc(O)c(O)c(O)c1 [1-O-β-galloyl glucose (synthetic), 1-O-β-galloyl glucose] | 2.4 |  |
| COc1ccc(C(=O)OC2OC(CO)C(O)C(O)C2O)cc1O (stereo not drawn) [1-O-β-isovanillyl glucose (synthetic), 1-O-β-isovanillyl glucose] | 23.1 |  |
